Experimental data taken from paper PMC5513037, “Examining the influence of specificity ligands and ATP-competitive ligands on the overall effectiveness of bivalent kinase inhibitors” (Proteome Science, 2017).

Key:
Assay in all cases: KAM-matrix competition in K562 lysate;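 for 0.001 uM KAM: median log10 fold change of treatment over DMSO control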;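 for 0.01 uM KAM: median log10 fold change of treatment over DMSO control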;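 for 0.1 uM KAM: median log10 fold change of treatment over DMSO control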;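 for 1 uM KAM: median log10 fold change of treatment over DMSO control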;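 for 10 uM KAM: median log10 fold change of treatment over DMSO control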
Format in all cases: binding
PRKCA = biological target: T1, PRKCA (Homo sapiens, UniProt P17252)
T1 construct: endogenous in cells; host or cells: K562 lysate
Method: (§1) Supplement 12953_2017_125_MOESM1_ESM.zip/MS_Supp Info.xlsx, sheet "KAM" | column: 10 uM KAM; 1 uM KAM; 0.1 uM KAM; 0.01 uM KAM; 0.001 uM KAM; RB50

PIK3R4 = biological target: T2, PIK3R4 (Homo sapiens, UniProt Q99570);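 for 0.001 uM KAM: median log10 fold change of treatment over DMSO control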;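 for 0.01 uM KAM: median log10 fold change of treatment over DMSO control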;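 for 0.1 uM KAM: median log10 fold change of treatment over DMSO control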;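 for 1 uM KAM: median log10 fold change of treatment over DMSO control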;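 for 10 uM KAM: median log10 fold change of treatment over DMSO control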
T2 construct: endogenous in cells; host or cells: K562
T2 sequence (Q99570 2-1358 limits assumed): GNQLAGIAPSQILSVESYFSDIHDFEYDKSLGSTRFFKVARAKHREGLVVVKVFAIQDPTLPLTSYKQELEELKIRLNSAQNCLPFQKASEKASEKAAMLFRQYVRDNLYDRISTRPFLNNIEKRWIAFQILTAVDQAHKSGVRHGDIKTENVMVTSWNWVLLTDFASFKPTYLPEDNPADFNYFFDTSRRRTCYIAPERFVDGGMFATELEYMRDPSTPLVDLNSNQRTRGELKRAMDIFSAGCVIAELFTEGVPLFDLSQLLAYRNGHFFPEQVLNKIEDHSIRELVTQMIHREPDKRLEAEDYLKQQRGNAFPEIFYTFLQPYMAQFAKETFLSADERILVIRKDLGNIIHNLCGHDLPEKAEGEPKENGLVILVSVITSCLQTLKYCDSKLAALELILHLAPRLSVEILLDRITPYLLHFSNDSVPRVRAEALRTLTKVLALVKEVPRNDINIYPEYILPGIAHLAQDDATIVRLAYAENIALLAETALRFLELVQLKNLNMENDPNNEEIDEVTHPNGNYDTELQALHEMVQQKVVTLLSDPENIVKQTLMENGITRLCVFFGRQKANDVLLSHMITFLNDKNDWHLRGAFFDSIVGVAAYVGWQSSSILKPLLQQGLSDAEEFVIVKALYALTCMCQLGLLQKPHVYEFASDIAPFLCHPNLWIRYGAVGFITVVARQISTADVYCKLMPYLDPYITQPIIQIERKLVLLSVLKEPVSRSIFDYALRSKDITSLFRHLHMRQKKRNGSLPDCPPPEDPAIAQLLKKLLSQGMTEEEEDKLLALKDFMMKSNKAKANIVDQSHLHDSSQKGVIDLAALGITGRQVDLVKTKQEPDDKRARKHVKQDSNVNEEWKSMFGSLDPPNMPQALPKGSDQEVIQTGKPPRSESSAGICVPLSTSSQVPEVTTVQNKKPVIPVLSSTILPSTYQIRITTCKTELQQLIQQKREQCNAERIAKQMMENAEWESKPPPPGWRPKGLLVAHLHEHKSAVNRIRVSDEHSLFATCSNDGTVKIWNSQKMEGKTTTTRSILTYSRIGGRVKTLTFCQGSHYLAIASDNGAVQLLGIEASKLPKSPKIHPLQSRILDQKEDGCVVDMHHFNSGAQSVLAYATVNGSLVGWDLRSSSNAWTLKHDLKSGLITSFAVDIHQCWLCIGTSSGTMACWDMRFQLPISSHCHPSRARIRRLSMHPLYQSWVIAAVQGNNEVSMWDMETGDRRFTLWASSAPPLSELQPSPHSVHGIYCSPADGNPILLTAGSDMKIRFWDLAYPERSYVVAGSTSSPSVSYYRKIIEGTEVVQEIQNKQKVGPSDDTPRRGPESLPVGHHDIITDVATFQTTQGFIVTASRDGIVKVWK
T2 sequence (Q8NEB9 whole entry partner): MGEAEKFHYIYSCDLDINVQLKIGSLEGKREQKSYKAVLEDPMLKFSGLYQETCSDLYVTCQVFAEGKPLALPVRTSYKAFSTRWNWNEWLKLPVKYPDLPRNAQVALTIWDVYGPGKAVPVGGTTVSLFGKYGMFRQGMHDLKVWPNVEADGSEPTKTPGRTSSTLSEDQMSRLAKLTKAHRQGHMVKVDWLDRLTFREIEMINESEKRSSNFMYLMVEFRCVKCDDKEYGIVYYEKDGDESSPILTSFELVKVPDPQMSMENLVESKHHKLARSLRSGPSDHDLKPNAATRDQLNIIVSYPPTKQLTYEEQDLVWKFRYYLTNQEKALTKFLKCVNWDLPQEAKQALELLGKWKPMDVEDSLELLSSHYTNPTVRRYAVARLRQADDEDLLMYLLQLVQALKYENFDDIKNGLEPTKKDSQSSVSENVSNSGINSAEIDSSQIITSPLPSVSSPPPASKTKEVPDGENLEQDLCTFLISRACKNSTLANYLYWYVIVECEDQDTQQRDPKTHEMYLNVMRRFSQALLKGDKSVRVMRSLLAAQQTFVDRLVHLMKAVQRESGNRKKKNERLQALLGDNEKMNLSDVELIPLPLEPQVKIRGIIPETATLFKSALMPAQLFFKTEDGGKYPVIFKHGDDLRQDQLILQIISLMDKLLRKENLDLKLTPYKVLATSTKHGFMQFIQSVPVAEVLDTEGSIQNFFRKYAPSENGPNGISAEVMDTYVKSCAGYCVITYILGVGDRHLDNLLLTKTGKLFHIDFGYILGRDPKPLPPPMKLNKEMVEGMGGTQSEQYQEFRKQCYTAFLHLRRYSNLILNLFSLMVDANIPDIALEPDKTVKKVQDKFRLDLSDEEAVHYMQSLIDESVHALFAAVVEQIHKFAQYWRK
Method: as §1

MINK1 = biological target: T3, MINK1 (Homo sapiens, UniProt Q8N4C8)
T3 construct: endogenous in cells; host or cells: K562
T3 sequence (Q8N4C8 whole entry): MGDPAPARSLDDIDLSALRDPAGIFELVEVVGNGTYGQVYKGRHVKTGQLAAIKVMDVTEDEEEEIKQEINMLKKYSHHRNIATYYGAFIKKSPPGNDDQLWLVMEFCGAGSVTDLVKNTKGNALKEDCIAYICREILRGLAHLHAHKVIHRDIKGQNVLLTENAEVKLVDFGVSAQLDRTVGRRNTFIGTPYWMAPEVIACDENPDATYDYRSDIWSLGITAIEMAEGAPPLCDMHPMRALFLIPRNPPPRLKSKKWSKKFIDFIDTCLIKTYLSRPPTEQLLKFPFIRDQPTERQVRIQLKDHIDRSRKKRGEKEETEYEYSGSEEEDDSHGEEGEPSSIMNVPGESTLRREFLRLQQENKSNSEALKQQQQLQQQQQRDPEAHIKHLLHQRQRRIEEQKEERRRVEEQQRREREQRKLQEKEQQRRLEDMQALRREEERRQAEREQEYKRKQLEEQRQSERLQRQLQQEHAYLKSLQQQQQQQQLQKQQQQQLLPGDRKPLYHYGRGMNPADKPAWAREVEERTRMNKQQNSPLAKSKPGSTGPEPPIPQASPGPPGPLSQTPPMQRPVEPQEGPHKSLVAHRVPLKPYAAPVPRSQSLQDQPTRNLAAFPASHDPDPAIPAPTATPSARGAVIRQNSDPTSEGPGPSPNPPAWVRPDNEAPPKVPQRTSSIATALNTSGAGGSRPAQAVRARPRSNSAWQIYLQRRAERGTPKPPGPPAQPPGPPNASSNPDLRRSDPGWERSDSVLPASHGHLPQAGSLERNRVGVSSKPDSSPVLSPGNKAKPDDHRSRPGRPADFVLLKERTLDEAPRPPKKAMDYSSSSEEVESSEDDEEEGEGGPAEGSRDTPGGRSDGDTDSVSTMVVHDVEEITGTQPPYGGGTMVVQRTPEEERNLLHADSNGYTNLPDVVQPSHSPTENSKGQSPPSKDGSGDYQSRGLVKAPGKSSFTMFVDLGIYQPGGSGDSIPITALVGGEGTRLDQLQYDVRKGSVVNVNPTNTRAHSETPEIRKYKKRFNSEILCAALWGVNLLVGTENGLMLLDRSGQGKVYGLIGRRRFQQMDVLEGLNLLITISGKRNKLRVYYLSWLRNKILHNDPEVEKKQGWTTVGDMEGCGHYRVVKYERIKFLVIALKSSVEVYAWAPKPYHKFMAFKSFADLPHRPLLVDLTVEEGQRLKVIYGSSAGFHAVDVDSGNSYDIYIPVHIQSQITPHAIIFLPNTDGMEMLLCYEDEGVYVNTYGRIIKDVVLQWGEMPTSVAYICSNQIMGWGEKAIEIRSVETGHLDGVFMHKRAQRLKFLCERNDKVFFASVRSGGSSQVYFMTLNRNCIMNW
Method: as §1

ADRBK1 = biological target: T4, ADRBK1 (Homo sapiens, UniProt P25098);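 for 0.001 uM KAM: median log10 fold change of treatment over DMSO control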;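 for 0.01 uM KAM: median log10 fold change of treatment over DMSO control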;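 for 0.1 uM KAM: median log10 fold change of treatment over DMSO control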;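 for 1 uM KAM: median log10 fold change of treatment over DMSO control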;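 for 10 uM KAM: median log10 fold change of treatment over DMSO control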
T4 construct: endogenous in cells; host or cells: K562
T4 sequence (P25098 1-689): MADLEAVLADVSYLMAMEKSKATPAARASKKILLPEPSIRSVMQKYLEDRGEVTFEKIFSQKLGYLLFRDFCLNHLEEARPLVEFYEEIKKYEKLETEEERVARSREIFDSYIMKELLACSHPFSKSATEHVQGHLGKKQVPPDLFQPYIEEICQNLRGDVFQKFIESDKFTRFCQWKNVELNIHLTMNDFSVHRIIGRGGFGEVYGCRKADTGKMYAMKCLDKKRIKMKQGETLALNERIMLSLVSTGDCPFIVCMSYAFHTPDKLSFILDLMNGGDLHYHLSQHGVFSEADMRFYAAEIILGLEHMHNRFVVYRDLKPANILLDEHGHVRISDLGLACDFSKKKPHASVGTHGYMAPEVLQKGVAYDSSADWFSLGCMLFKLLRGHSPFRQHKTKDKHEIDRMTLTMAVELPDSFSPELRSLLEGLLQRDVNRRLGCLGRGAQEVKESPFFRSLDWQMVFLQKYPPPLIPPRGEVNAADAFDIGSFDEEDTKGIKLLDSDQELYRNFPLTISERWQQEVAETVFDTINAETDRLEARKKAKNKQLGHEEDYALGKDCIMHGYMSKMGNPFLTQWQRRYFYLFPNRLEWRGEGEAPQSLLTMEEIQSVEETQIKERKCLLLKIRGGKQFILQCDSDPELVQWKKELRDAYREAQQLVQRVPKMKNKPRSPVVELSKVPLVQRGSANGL
Method: as §1

ABL2 = biological target: T5, ABL2 (Homo sapiens, UniProt P42684)
T5 construct: endogenous in cells; host or cells: K562
Method: as §1

NME3 = biological target: T6, NME3 (Homo sapiens, UniProt Q13232);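 for 0.001 uM KAM: median log10 fold change of treatment over DMSO control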;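 for 0.01 uM KAM: median log10 fold change of treatment over DMSO control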;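 for 0.1 uM KAM: median log10 fold change of treatment over DMSO control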;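 for 1 uM KAM: median log10 fold change of treatment over DMSO control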;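 for 10 uM KAM: median log10 fold change of treatment over DMSO control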
T6 construct: endogenous in cells; host or cells: K562
T6 sequence (Q13232 1-169): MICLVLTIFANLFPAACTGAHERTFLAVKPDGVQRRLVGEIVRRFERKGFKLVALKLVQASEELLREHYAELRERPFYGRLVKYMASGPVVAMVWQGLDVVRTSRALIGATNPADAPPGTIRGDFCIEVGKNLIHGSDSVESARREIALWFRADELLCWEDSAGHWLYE
Method: as §1

[1] = read-out: RB50 (the source's name)
[2] = KAM 0.001-10 uM, read-out: RB50 (the source's name)

N#CCc1ccc(Nc2nc(NCCCN)cc(Nc3cc(C4CC4)[nH]n3)n2)cc1 [KAM]
median Log10 fold change (PRKCA; 0.001 uM KAM): -0.02328
median Log10 fold change (PRKCA; 0.01 uM KAM): -0.03535
median Log10 fold change (PRKCA; 0.1 uM KAM): -0.1377
median Log10 fold change (PRKCA; 1 uM KAM): -0.1636
median Log10 fold change (PRKCA; 10 uM KAM): -0.4501
IC50 (PRKCA; [1]): 3.16 µM
IC50 (PIK3R4; [2]): > 10 µM
0.001 uM KAM (PIK3R4; relative to 0 uM KAM = 0): -0.04609
0.01 uM KAM (PIK3R4; relative to 0 uM KAM = 0): 0.02295
0.1 uM KAM (PIK3R4; relative to 0 uM KAM = 0): -0.02338
1 uM KAM (PIK3R4; relative to 0 uM KAM = 0): -0.03171
10 uM KAM (PIK3R4; relative to 0 uM KAM = 0): -0.01923
median Log10 fold change (MINK1; 0.001 uM KAM): -0.05922
median Log10 fold change (MINK1; 0.01 uM KAM): -0.00678
median Log10 fold change (MINK1; 0.1 uM KAM): -0.2189
median Log10 fold change (MINK1; 1 uM KAM): -0.4489
median Log10 fold change (MINK1; 10 uM KAM): -0.4879
IC50 (MINK1; [1]): 329 nM
IC50 (ADRBK1; [2]): > 10 µM
0.001 uM KAM (ADRBK1; relative to 0 uM KAM = 0): 0.02352
0.01 uM KAM (ADRBK1; relative to 0 uM KAM = 0): 0.07327
0.1 uM KAM (ADRBK1; relative to 0 uM KAM = 0): 0.03347
1 uM KAM (ADRBK1; relative to 0 uM KAM = 0): 0.04428
10 uM KAM (ADRBK1; relative to 0 uM KAM = 0): 0.02417
median Log10 fold change (ABL2; 0.001 uM KAM): -0.03166
median Log10 fold change (ABL2; 0.01 uM KAM): -0.02797
median Log10 fold change (ABL2; 0.1 uM KAM): -0.1724
median Log10 fold change (ABL2; 1 uM KAM): -0.2861
median Log10 fold change (ABL2; 10 uM KAM): -0.4205
IC50 (ABL2; [1]): 1220 nM
IC50 (NME3; [2]): > 10 µM
0.001 uM KAM (NME3; relative to 0 uM KAM = 0): -0.01588
0.01 uM KAM (NME3; relative to 0 uM KAM = 0): -0.01222
0.1 uM KAM (NME3; relative to 0 uM KAM = 0): -0.05319
1 uM KAM (NME3; relative to 0 uM KAM = 0): 0.05076
10 uM KAM (NME3; relative to 0 uM KAM = 0): 0.01706
